Measured values taken from patent US7138145B2, “Method and apparatus for ozination of grain” (priority 2001, dated 2006).

Legend:
insects [1] = details: fumigation of the grain; cited from earlier work
[2] = test system: mold, fungus, and some bacteria; details: fumigation of the grain; cited from earlier work
[3] = test system: mold, bacteria, and fungus; test: ozonation of grain stored in an elevator: treatment of mold, bacteria and fungus
Excerpt: (§1) It is an object of some embodiments of the present invention to provide a method for treating grain for fungus, mold, bacteria, dust, and insects by exposing the grain to a high concentration of ozone for an extended period of time. The present invention utilizes a powerful fan or fans placed at the bottom of the grain storage facility such as, for example, a silo or grain elevator to draw down through the grain a flow of gas containing ozone between 50 and 100 ppm. Ozone generators placed in the head space at the top of the elevator produce ozone in a concentration in excess of 100 ppm. Monitors placed in this head space assure that the ozone concentration remains at these levels. If the ozone generators are not capable of maintaining the concentration at 100 ppm in the head space, then the draw is reduced by slowing the fan speed. A duct takes drawn gases from the bottom of the elevator and re-circulates those gases into the head space to reduce the amount of ozone needed to be generated during a second pass. To assure that the gases come in contact with all of the grain in the elevator, a technique labeled “pulling the core” is utilized wherein a quantity of grain is removed from the bottom of the elevator at its center to remove a column of grain from the core of the column of grain thereby evenly distribute the grain within the elevator. The material which is pulled from the core is then sent back to the top of the column and evenly distributed across the top.
(§2) The following discussion is directed towards grain stored within a vertical elevator 10. […] In one embodiment, a quantity of ozone is injected into a grain bin, vessel, or truck prior to the grain being loaded into said container in order to treat the grain for mold, bacteria, fungi, and biological load as the grain is loaded. […] In this embodiment, the loading bin is partially enclosed and has injected therein a sufficient quantity of ozone to create a concentration of approximately 100 ppm within the loading bin and the enclosed auger. […]

insects [4] = test: ozonation of grain stored in an elevator: killing of insects
Excerpt: as §1, §2

[5] = flow of gas containing ozone between 50 and 100 ppm
[6] = ozone concentration maintained for three days
[7] = ozone drawn through grain, over 100 ppm in head space, 50 ppm at bottom of column

SMILES | effect of fumigation on insects (insects [1]) | effect of fumigation on mold, fungus and some bacteria [2] | time within which mold and bacteria begin to die [3, 5] | destruction of mold, bacteria and fungus [3, 6] | time after which smell from mold and fungus disappears [3, 7] | time within which some insects begin to die (insects [4]; [5]) | destruction of insects (insects [4]; [6]) | exposure after which some insects are killed (insects [4]; [7])
CBr [methyl bromide] | effective at killing insects | not been effective | – | – | – | – | – | –
O=[O+][O-] [ozone] | – | – | twenty-four | almost all insect, mold, bacteria, and fungus will be destroyed | 24 h | twenty-four | almost all insect, mold, bacteria, and fungus will be destroyed | 12 h
P [phosphine] | effective at killing insects | not been effective | – | – | – | – | – | –
